PubChem BioAssay AID192 (DTP/NCI, 2004)
Where “and” joins values, the source holds several entries; their conditions need not be identical. Identical values can stand only once. Toxic doses and inconclusive results are not listed.

Tested on: BDF1 mice, B16 melanoma ip, median survival T/C
Test: NCI In Vivo Anticancer Drug Screen. Data for tumor model B16 Melanoma (intraperitoneal) in B6D2F1 (BDF1) mice
Settings: endpoint: median survival time, higher = longer survival
In short: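 Vehicle-treated animals serve as the reference (C); treated animals (T) are scored for survival or tumor size after tumor transplantation.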

[1] = dose: 6.25 mg/kg/injection, schedule: Q01DX009 (ip), vehicle: Klucel (hydroxypropylcellulose) (HPC)
[2] = dose: 12.5 mg/kg/injection, schedule: Q01DX009 (ip), vehicle: Klucel (hydroxypropylcellulose) (HPC)
[3] = dose: 100.0 mg/kg/injection, schedule: Q01DX009 (ip), vehicle: Klucel (hydroxypropylcellulose) (HPC)
[4] = dose: 200.0 mg/kg/injection, schedule: Q01DX009 (ip), vehicle: Klucel (hydroxypropylcellulose) (HPC)
[5] = dose: 400.0 mg/kg/injection, schedule: Q01DX009 (ip), vehicle: Klucel (hydroxypropylcellulose) (HPC)
[6] = dose: 25.0 mg/kg/injection, schedule: Q01DX009 (ip), vehicle: saline
[7] = dose: 6.25 mg/kg/injection, schedule: Q01DX009 (ip), vehicle: saline with Tween-80
[8] = dose: 25.0 mg/kg/injection, schedule: Q01DX009 (ip), vehicle: Klucel (hydroxypropylcellulose) (HPC)
[9] = dose: 0.25 mg/kg/injection, schedule: Q01DX009 (ip), vehicle: saline
[10] = dose: 100.0 mg/kg/injection, schedule: Q04DX003 (ip), vehicle: Klucel (hydroxypropylcellulose) (HPC)
[11] = dose: 50.0 mg/kg/injection, schedule: Q01DX009 (ip), vehicle: Klucel (hydroxypropylcellulose) (HPC)
[12] = dose: 6.25 mg/kg/injection, schedule: Q01DX009 (ip), vehicle: saline
[13] = dose: 12.5 mg/kg/injection, schedule: Q01DX009 (ip), vehicle: saline
[14] = dose: 100.0 mg/kg/injection, schedule: Q01DX009 (ip), vehicle: saline

For `ClC(Cl)=[C](Cl)[Hg][C](Cl)=C(Cl)Cl`, the T/C (dose: 3.13 mg/kg/injection, schedule: Q01DX009 (ip), vehicle: Klucel (hydroxypropylcellulose) (HPC)) was 120 % of control, the T/C [1] was 99 % of control and the T/C [2] was 92 % of control.

With `O=C(Nc1ccc(Br)cc1)c1ccc(Cl)c(Cl)c1` the T/C [3] was 118 % of control, the T/C [4] was 114 % of control and the T/C [5] was 114 % of control.

For `O=C(Nc1ccc(NC2=NCCN2)cc1)c1cccc(C(=O)Nc2ccc(NC3=NCCN3)cc2)c1`, the T/C (dose: 7.5 mg/kg/injection, schedule: Q01DX009 (ip), vehicle: saline with Tween-80) was 105 % of control, the T/C (dose: 7.5 mg/kg/injection, schedule: Q04DX003 (ip), vehicle: saline with Tween-80) was 100 % of control and the T/C (dose: 15.0 mg/kg/injection, schedule: Q01DX009 (ip), vehicle: saline with Tween-80) was 92 % of control. The T/C (dose: 15.0 mg/kg/injection, schedule: Q04DX003 (ip), vehicle: saline with Tween-80) was 88 % of control and the T/C (dose: 30.0 mg/kg/injection, schedule: Q04DX003 (ip), vehicle: saline with Tween-80) was 100 % of control.

With `O=C(O)c1ccccc1C(=O)O.[C-]#[O+].[C-]#[O+].[C-]#[O+].[C-]#[O+].[Rh].[Rh]` the T/C [3] was 108 % of control, the T/C [4] was 100 % of control and the T/C [5] was 94 % of control.

For `CCN(CC)CCSC(=O)C(O)(c1ccccc1)C1CCCC1` (centres undefined), the T/C [6] was 124 % of control.

With `CC(C)=CC(=O)OC1C2C(C)C(=O)OC2C(O)C(C)C2C=CC(=O)C21C` (centres undefined) the T/C [1] was 95 % of control, the T/C [7] was 91 % of control and the T/C [2] was 97 % of control. The T/C (dose: 12.5 mg/kg/injection, schedule: Q01DX009 (ip), vehicle: saline with Tween-80) was 94 % of control, the T/C [8] was 93 % of control and 99 % of control and the T/C (dose: 25.0 mg/kg/injection, schedule: Q01DX009 (ip), vehicle: saline with Tween-80) was 97 % of control.

For `N#Cc1cn(C2OC(CO)C(O)C2O)c2ncnc(N)c12` (centres undefined), the T/C (dose: 0.06 mg/kg/injection, schedule: Q01DX009 (ip), vehicle: saline) was 120 % of control, the T/C (dose: 0.12 mg/kg/injection, schedule: Q01DX009 (ip), vehicle: saline) was 118 % of control and the T/C [9] was 105 % of control.

In the case of `COc1ccc(/C=C\C(=O)/C=C/c2ccc(OC)cc2)cc1`, the T/C (dose: 25.0 mg/kg/injection, schedule: Q04DX003 (ip), vehicle: Klucel (hydroxypropylcellulose) (HPC)) was 97 % of control, the T/C (dose: 50.0 mg/kg/injection, schedule: Q04DX003 (ip), vehicle: Klucel (hydroxypropylcellulose) (HPC)) was 97 % of control and the T/C [10] was 97 % of control.

For `COc1ccc(N=C(C(=Nc2ccc(OC)cc2)c2ccccc2)c2ccccc2)cc1`, the T/C [10] was 102 % of control, the T/C (dose: 200.0 mg/kg/injection, schedule: Q04DX003 (ip), vehicle: Klucel (hydroxypropylcellulose) (HPC)) was 103 % of control and the T/C (dose: 400.0 mg/kg/injection, schedule: Q04DX003 (ip), vehicle: Klucel (hydroxypropylcellulose) (HPC)) was 101 % of control.

With `CN(C)c1ccc2c(N(C)C)cc(N(C)C)nc2c1` the T/C (dose: 3.12 mg/kg/injection, schedule: Q01DX009 (ip), vehicle: Klucel (hydroxypropylcellulose) (HPC)) was 99 % of control, the T/C [1] was 107 % of control and the T/C [2] was 97 % of control. The T/C [8] was 108 % of control and the T/C [11] was 102 % of control.

`O=[N+]([O-])c1cc([N+](=O)[O-])c(Nc2cccc3ccccc23)c([N+](=O)[O-])c1` was tested, and the T/C [11] was 92 % of control, the T/C [3] was 103 % of control and the T/C [4] was 97 % of control.

In the case of `CC(CN=Cc1ccccc1[O-])N=Cc1ccccc1[O-].[O]=[V]` (centres undefined), the T/C (dose: 2.5 mg/kg/injection, schedule: Q01DX009 (ip), vehicle: saline with Tween-80) was 90 % of control, the T/C (dose: 5.0 mg/kg/injection, schedule: Q01DX009 (ip), vehicle: saline with Tween-80) was 90 % of control and the T/C (dose: 5.0 mg/kg/injection, schedule: Q04DX003 (ip), vehicle: saline with Tween-80) was 97 % of control. For the same compound, the T/C (dose: 10.0 mg/kg/injection, schedule: Q04DX003 (ip), vehicle: saline with Tween-80) was 92 % of control.

With `O=C(CN1CCCCC1)Nc1cccc(C(F)(F)F)c1` the T/C [3] was 87 % of control and the T/C [4] was 89 % of control.

`CNC(C)CC1CCCCC1` (centres undefined) was tested, and the T/C (dose: 3.12 mg/kg/injection, schedule: Q01DX009 (ip), vehicle: saline) was 100 % of control, the T/C [12] was 100 % of control and the T/C [13] was 100 % of control. For the same compound, the T/C [6] was 95 % of control.

For `[Cl][Hg][CH]1CCC2OC1CC[CH]2[Hg][Cl]` (centres undefined), the T/C [7] was 104 % of control.

For `Cc1ccc(C)c(C2NC(=O)c3ccccc3N2)c1` (centres undefined), the T/C [3] was 121 % of control and the T/C [4] was 115 % of control.

`COc1cc([C@@H]2c3cc4c(cc3[C@@H](OC3OC5CO[C@@H](c6cccs6)OC5C(O)C3O)[C@H]3COC(=O)[C@H]23)OCO4)cc(OC)c1O` (some centres undefined) was tested, and the T/C (dose: 0.25 mg/kg/injection, schedule: Q01DX009 (ip), vehicle: clinical formulation) was 183 % of control, the T/C [9] was 171 % of control and the T/C (dose: 0.5 mg/kg/injection, schedule: Q01DX009 (ip), vehicle: clinical formulation) was 223 % of control. For the same compound, the T/C (dose: 0.5 mg/kg/injection, schedule: Q01DX009 (ip), vehicle: saline) was 166 % of control and 214 % of control, the T/C (dose: 0.5 mg/kg/injection, schedule: Q01DX009 (ip), vehicle: water) was 173 % of control and the T/C (dose: 1.0 mg/kg/injection, schedule: Q01DX009 (ip), vehicle: clinical formulation) was 269 % of control. For the same compound, the T/C (dose: 1.0 mg/kg/injection, schedule: Q01DX009 (ip), vehicle: saline) was 185 % of control and 254 % of control, the T/C (dose: 1.0 mg/kg/injection, schedule: Q01DX009 (ip), vehicle: water) was 178 % of control and the T/C (dose: 2.0 mg/kg/injection, schedule: Q01DX009 (ip), vehicle: clinical formulation) was 285 % of control. The T/C (dose: 2.0 mg/kg/injection, schedule: Q01DX009 (ip), vehicle: saline) was 204 % of control and 285 % of control, the T/C (dose: 2.0 mg/kg/injection, schedule: Q01DX009 (ip), vehicle: water) was 204 % of control and the T/C (dose: 4.0 mg/kg/injection, schedule: Q01DX009 (ip), vehicle: saline) was 257 % of control.

In the case of `C/C(=N\NC(N)=O)C1=C(O)C(C(C)C)NC1=O` (centres undefined), the T/C (dose: 50.0 mg/kg/injection, schedule: Q01DX009 (ip), vehicle: saline with Tween-80) was 91 % of control, the T/C (dose: 100.0 mg/kg/injection, schedule: Q01DX009 (ip), vehicle: saline with Tween-80) was 86 % of control and the T/C (dose: 200.0 mg/kg/injection, schedule: Q01DX009 (ip), vehicle: saline with Tween-80) was 91 % of control. The T/C (dose: 400.0 mg/kg/injection, schedule: Q01DX009 (ip), vehicle: saline with Tween-80) was 91 % of control.

With `CCOC(=O)C(C(=O)COC)C(=O)OCC` the T/C (dose: 25.0 mg/kg/injection, schedule: Q01DX009 (ip), vehicle: water) was 102 % of control, the T/C (dose: 50.0 mg/kg/injection, schedule: Q01DX009 (ip), vehicle: water) was 98 % of control and the T/C (dose: 100.0 mg/kg/injection, schedule: Q01DX009 (ip), vehicle: water) was 93 % of control.

`C1CNC2NCCNC2N1` (centres undefined) was tested, and the T/C [12] was 114 % of control, the T/C [13] was 120 % of control and the T/C [6] was 105 % of control. For the same compound, the T/C [14] was 109 % of control.

For `c1ccc(COCCNCCOCc2ccccc2)cc1`, the T/C [2] was 100 % of control, the T/C [8] was 90 % of control and the T/C [11] was 103 % of control.

For `COc1cc(C(=O)OC(C)CN2CCN(C(=O)c3cc(OC)c(OC)c(OC)c3)CC2)cc(OC)c1OC` (centres undefined), the T/C [13] was 116 % of control, the T/C [6] was 105 % of control and the T/C (dose: 50.0 mg/kg/injection, schedule: Q01DX009 (ip), vehicle: saline) was 100 % of control. For the same compound, the T/C [14] was 110 % of control.

In the case of `COc1ccc(Nc2ccnc3cc(Cl)ccc23)cc1CN(CCCl)CCCl`, the T/C (dose: 1.25 mg/kg/injection, schedule: Q01DX009 (ip), vehicle: Klucel (hydroxypropylcellulose) (HPC)) was 118 % of control and the T/C (dose: 2.5 mg/kg/injection, schedule: Q01DX009 (ip), vehicle: Klucel (hydroxypropylcellulose) (HPC)) was 94 % of control.

`C=C1CCN2CCCC12` (centres undefined) was tested, and the T/C (dose: 10.0 mg/kg/injection, schedule: Q01DX009 (ip), vehicle: saline) was 107 % of control, the T/C (dose: 20.0 mg/kg/injection, schedule: Q01DX009 (ip), vehicle: saline) was 104 % of control and the T/C (dose: 40.0 mg/kg/injection, schedule: Q01DX009 (ip), vehicle: saline) was 100 % of control. The T/C (dose: 80.0 mg/kg/injection, schedule: Q01DX009 (ip), vehicle: saline) was 95 % of control.

`COc1cc2cc3cc4cc(OC)c(OC)cc4c(C)[n+]3cc2cc1OC` (tested in a mixture with another compound) was tested, and the T/C (dose: 10.0 mg/kg/injection, schedule: Q01DX009 (ip), vehicle: Klucel (hydroxypropylcellulose) (HPC)) was 96 % of control and the T/C (dose: 20.0 mg/kg/injection, schedule: Q01DX009 (ip), vehicle: Klucel (hydroxypropylcellulose) (HPC)) was 95 % of control.
